Test results: US10131679B2, “Substituted dihydropyrrolopyrazole compound” (UBE INDUSTRIES, LTD., priority 2014, dated 2018)
pKi: −log10 of the molar value.

Key:
PAK4 = molecular target: T1, PAK4 (Homo sapiens, UniProt O96013); test: PAK4 enzyme inhibition test; assay type: biochemical; conditions: Ki=IC50/(1+S/Km); 33P bound to MBP, [γ-33P]ATP, 30° C. for 20 minutes; read-out: Ki value of PAK4 inhibitory activity
T1 construct: purchased Invitrogen Corp. PV4212
Experimental: PAK4 Enzyme Inhibition Test
The preparation of a buffer solution was performed by mixing a trishydroxyaminomethane buffer solution (Tris buffer solution) (pH 7.5), DTT, Triton X-100, MgCl2, ethylene glycol bis(β-aminoethyl ether)-N,N,N′,N′-tetraacetic acid (EGTA), (3-glycerol phosphate, and sodium orthovanadate(V). A 40 μM [γ-^33P]ATP solution was used by diluting a 10 mM ATP solution and a commercially available [γ-^33P]ATP solution (manufactured by PerkinElmer, Inc., Code No. NEG-302H) with the buffer solution. A PAK4 solution was used by diluting commercially available PAK4 (manufactured by Invitrogen Corp., Catalog No. PV4212) with the buffer solution. A substrate solution was used by diluting MBP with the buffer solution. As for the preparation of a reaction solution, the buffer solution, the 40 μM [γ-^33P]ATP solution, the PAK4 solution, and the substrate solution were mixed at 4° C. to obtain a reaction solution.
(§1) PAK4 enzyme reaction was performed by adding 5 μL of a test compound solution prepared with 10% DMSO/90% injectable distilled water, and 45 μL of the reaction solution in a 1.5 mL microtube at 4° C. and reacting in the microtube at 30° C. for 20 minutes in a water bath incubator. After the reaction, a 10% aqueous TCA solution was added to each microtube while cooled to 4° C., and mixed to terminate the reaction. The resultant was left standing at 4° C. for 10 minutes and then centrifuged in a centrifuge, and the supernatant was discarded. Next, a 2% aqueous TCA solution was added, mixed, and then centrifuged in a centrifuge, and the supernatant was discarded. This washing operation was performed twice. After the washing, precipitates were dissolved in a 1 N aqueous NaOH solution, and the radioactivity was measured with a liquid scintillation counter.
The calculation of the inhibitory activity of the test compound against PAK4 was performed as a test compound concentration inhibiting 50% of the amount of ^33P bound to MBP (IC50 value) by using EXSUS (version 8.0.0 or version 8.0.1, manufactured by CAC Exicare Corp.).
(§2) The calculation of a Ki value was performed according to the following calculation expression. S means the concentration of ATP contained in the reaction solution, and Km means a Michaelis-Menten constant. Ki=IC50/(1+S/Km)

CDK2 = molecular target: T2, CDK2 (Homo sapiens, UniProt P24941); test: CDK2 enzyme inhibition test; assay type: biochemical; conditions: Ki=IC50/(1+S/Km); 33P bound to MBP, [γ-33P]ATP, 30° C. for 20 minutes; read-out: Ki value of CDK2 inhibitory activity
T2 construct: purchased Invitrogen Corp. PV3267
Experimental: CDK2 Enzyme Inhibition Test
The preparation of a buffer solution was performed by mixing a HEPES buffer solution (pH 7.4), DTT, Triton X-100, and MgCl2. A 500 μM [γ-^33P]ATP solution was used by diluting a 10 mM ATP solution and a commercially available [γ-^33P]ATP solution (manufactured by PerkinElmer, Inc., Code No. NEG-302H) with the buffer solution. A CDK2 solution was used by diluting commercially available CDK2 (manufactured by Invitrogen Corp., Catalog No. PV3267) with the buffer solution. A substrate solution was used by diluting MBP with the buffer solution. As for the preparation of a reaction solution, the buffer solution, the 500 μM [γ-^33P]ATP solution, the CDK2 solution, and the substrate solution were mixed at 4° C. to obtain a reaction solution.
as §1, with “CDK2” for “PAK4”, “mixed thereto,” for “mixed,”
The calculation of the inhibitory activity of the test compound against CDK2 was performed as a test compound concentration inhibiting 50% of the amount of ^33P bound to MBP (IC50 value) by using EXSUS (version 8.0.0 or version 8.0.1, manufactured by CAC Exicare Corp.).
as §2

[1] = test system: mouse imiquimod-induced psoriasis model; test: Ear thickening suppression test using mouse imiquimod-induced psoriasis model; assay type: in vivo; conditions: topical, 120 h, application of a 0.01% methanol solution for 4 days, thickness measured on day 5, BALB/c mice, read-out: rate of inhibition of increase in right auricle thickness
Experimental: Ear Thickening Suppression Test Using Mouse Imiquimod-Induced Psoriasis Model
An imiquimod-induced psoriasis model test was carried out by modifying the method of Leslie van der Fits et al. (J. Immunol. 182, 5836 (2009)). BALB/c mice were used (female, supplied by Charles River Laboratories Japan, Inc.) as laboratory animals. On the start day of the test, the thicknesses of the right auricles of the mice were measured with a thickness gauge (model SMD-565J manufactured by TECLOCK Corp.). A test compound solution or only a solvent was applied or orally administered, and after 60 minutes, 5 mg of imiquimod (Beselna Cream 5% manufactured by Mochida Pharmaceutical Co., Ltd.) was applied to the insides of the right auricles. The test compound solution or solvent administration and the imiquimod application were carried out for 4 days, and the thicknesses of the right auricles were measured again on day 5. When increase in the thicknesses of the right auricles of the solvent-administered group on day 5 was defined as 100%, the rate of inhibition of increase (%) at each dose of the test compound was calculated.

T1 sequence (O96013 whole entry): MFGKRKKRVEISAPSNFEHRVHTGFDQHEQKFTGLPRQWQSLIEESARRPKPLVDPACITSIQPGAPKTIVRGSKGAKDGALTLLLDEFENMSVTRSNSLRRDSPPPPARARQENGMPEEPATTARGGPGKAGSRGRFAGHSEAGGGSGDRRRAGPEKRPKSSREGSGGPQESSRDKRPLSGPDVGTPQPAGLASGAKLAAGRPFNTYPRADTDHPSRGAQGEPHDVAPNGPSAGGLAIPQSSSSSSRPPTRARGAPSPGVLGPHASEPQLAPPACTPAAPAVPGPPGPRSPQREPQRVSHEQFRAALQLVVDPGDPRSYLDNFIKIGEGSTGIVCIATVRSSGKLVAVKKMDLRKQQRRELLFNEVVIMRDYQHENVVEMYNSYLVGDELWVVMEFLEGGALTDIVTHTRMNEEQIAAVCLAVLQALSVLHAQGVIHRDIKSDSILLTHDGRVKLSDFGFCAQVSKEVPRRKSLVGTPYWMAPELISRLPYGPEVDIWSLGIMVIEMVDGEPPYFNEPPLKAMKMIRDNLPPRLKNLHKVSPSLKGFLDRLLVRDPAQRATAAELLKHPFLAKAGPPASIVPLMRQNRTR

SMILES	pKi (PAK4)	pKi (CDK2)	inhibition in vivo at 0.01 % [1] [%]
C[C@@H](CO)NC(=O)N1Cc2c(NC(=O)C3([Si](C)(C)C)CCC3)n[nH]c2C1(C)C [IV-455, (S)—N-(1-Hydroxypropan-2-yl)-6,6-dimethyl-3-[1-(trimethylsilyl)cyclobutanecarboxamido]-4,6-dihydropyrrolo[3,4-c]pyrazole-5(1H)-carboxamide]	≤ 6.30	≤ 6.00	–
CC1(C)c2[nH]nc(NC(=O)C3([Si](C)(C)C)CCC3)c2CN1C(=O)NCCO [IV-438, N-(2-Hydroxyethyl)-6,6-dimethyl-3-[1-(trimethylsilyl)cyclobutanecarboxamido]-4,6-dihydropyrrolo[3,4-c]pyrazole-5(1H)-carboxamide]	≤ 6.30	≤ 6.00	–
CC(C)[C@@H](CO)NC(=O)N1Cc2c(NC(=O)C3([Si](C)(C)C)CCC3)n[nH]c2C1(C)C [IV-475, (S)—N-(1-Hydroxy-3-methylbutan-2-yl)-6,6-dimethyl-3-[1-(trimethylsilyl)cyclobutanecarboxamido]-4,6-dihydropyrrolo[3,4-c]pyrazole-5(1H)-carboxamide]	≤ 6.30	≤ 6.00	–
CC1(C)c2[nH]nc(NC(=O)C3([Si](C)(C)C)CCC3)c2CN1C(=O)[C@H](OC(F)F)c1ccccc1 [IV-1180, (R)—N-{5-[2-(Difluoromethoxy)-2-phenylacetyl]-6,6-dimethyl-1,4,5,6-tetrahydropyrrolo[3,4-c]pyrazol-3-yl}-1-(trimethylsilyl)cyclobutanecarboxamide]	–	–	≥ 50
CCO[C@@H](C(=O)N1Cc2c(NC(=O)C3([Si](C)(C)C)CCC3)n[nH]c2C1(C)C)c1ccccc1 [IV-1188, (R)—N-[5-(2-Ethoxy-2-phenylacetyl)-6,6-dimethyl-1,4,5,6-tetrahydropyrrolo[3,4-c]pyrazol-3-yl]-1-(trimethylsilyl)cyclobutanecarboxamide]	–	–	≥ 50
CC1(C)c2[nH]nc(NC(=O)C(C)(C)[Si](C)(C)C)c2CN1C(=O)N[C@H](CO)c1ccccc1 [II-114, (S)—N-(2-Hydroxy-1-phenylethyl)-6,6-dimethyl-3-[2-methyl-2-(trimethylsilyl)propanamido]-4,6-dihydropyrrolo[3,4-c]pyrazole-5(1H)-carboxamide]	≤ 6.30	≤ 6.00	–
CC1(C)c2[nH]nc(NC(=O)C3([Si](C)(C)C)CCC3)c2CN1C(=O)N[C@H](CO)C1CCCCC1 [IV-495, (S)—N-(1-Cyclohexyl-2-hydroxyethyl)-6,6-dimethyl-3-[1-(trimethylsilyl)cyclobutanecarboxamido]-4,6-dihydropyrrolo[3,4-c]pyrazole-5(1H)-carboxamide]	≤ 6.30	≤ 6.00	–

More lines, main results first:

pKi (PAK4)	pKi (CDK2)	SMILES	inhibition in vivo at 0.01 % [1] [%]
≤ 6.30	≤ 6.00	CC1(C)c2[nH]nc(NC(=O)C3([Si](C)(C)C)CCC3)c2CN1C(=O)O[C@H](CO)c1ccccc1 [IV-2, (S)-2-Hydroxy-1-phenylethyl 6,6-dimethyl-3-[1-(trimethylsilyl)cyclobutanecarboxamido]-4,6-dihydropyrrolo[3,4-c]pyrazole-5(1H)-carboxylate]	–
≤ 6.30	≤ 6.00	CC1(C)c2[nH]nc(NC(=O)C3([Si](C)(C)C)CCC3)c2CN1C(=O)N[C@H](CCCCO)c1ccccc1 [IV-291, (R)—N-(5-Hydroxy-1-phenylpentyl)-6,6-dimethyl-3-[1-(trimethylsilyl)cyclobutanecarboxamido]-4,6-dihydropyrrolo[3,4-c]pyrazole-5(1H)-carboxamide]	–
≤ 6.30	≤ 6.00	CC[Si](C)(C)C1(C(=O)Nc2n[nH]c3c2CN(C(=O)N[C@H](CO)c2ccccc2)C3(C)C)CCC1 [IV-117, (S)-3-[1-(Ethyldimethylsilyl)cyclobutanecarboxamido]-N-(2-hydroxy-1-phenylethyl)-6,6-dimethyl-4,6-dihydropyrrolo[3,4-c]pyrazole-5(1H)-carboxamide]	–
≤ 6.30	≤ 6.00	CC1(C)c2[nH]nc(NC(=O)C3([Si](C)(C)C)CCC3)c2CN1C(=O)N[C@H](CCCO)c1ccccc1 [IV-283, (R)—N-(4-Hydroxy-1-phenylbutyl)-6,6-dimethyl-3-[1-(trimethylsilyl)cyclobutanecarboxamido]-4,6-dihydropyrrolo[3,4-c]pyrazole-5(1H)-carboxamide]	–
≤ 6.30	≤ 6.00	CC(C)(O)[C@@H](NC(=O)N1Cc2c(NC(=O)C3([Si](C)(C)C)CCC3)n[nH]c2C1(C)C)c1ccccc1 [IV-171, (S)—N-(2-Hydroxy-2-methyl-1-phenylpropyl)-6,6-dimethyl-3-[1-(trimethylsilyl)cyclobutanecarboxamido]-4,6-dihydropyrrolo[3,4-c]pyrazole-5(1H)-carboxamide]	–
≤ 6.30	≤ 6.00	CC1(C)c2[nH]nc(NC(=O)C3([Si](C)(C)C)CCC3)c2CN1C(=O)NCC(O)c1ccccc1 (stereo not drawn) [IV-450, N-(2-Hydroxy-2-phenylethyl)-6,6-dimethyl-3-[1-(trimethylsilyl)cyclobutanecarboxamido]-4,6-dihydropyrrolo[3,4-c]pyrazole-5(1H)-carboxamide]	–
≤ 6.30	≤ 6.00	CC1(C)c2[nH]nc(NC(=O)C3([Si](C)(C)C)CC3)c2CN1C(=O)N[C@H](CO)c1ccccc1 [III-114, (S)—N-(2-Hydroxy-1-phenylethyl)-6,6-dimethyl-3-[1-(trimethylsilyl)cyclopropanecarboxamido]-4,6-dihydropyrrolo[3,4-c]pyrazole-5(1H)-carboxamide]	–
≤ 6.30	≤ 6.00	CN(C(=O)N1Cc2c(NC(=O)C3([Si](C)(C)C)CCC3)n[nH]c2C1(C)C)[C@H](CO)c1ccccc1 [IV-119, (S)—N-(2-Hydroxy-1-phenylethyl)-N,6,6-trimethyl-3-[1-(trimethylsilyl)cyclobutanecarboxamido]-4,6-dihydropyrrolo[3,4-c]pyrazole-5(1H)-carboxamide]	–
≤ 6.30	≤ 6.00	CC1(C)c2[nH]nc(NC(=O)C3([Si](C)(C)C)CCC3)c2CN1C(=O)C(CO)c1ccccc1 (stereo not drawn) [IV-632, N-[5-(3-Hydroxy-2-phenylpropanoyl)-6,6-dimethyl-1,4,5,6-tetrahydropyrrolo[3,4-c]pyrazol-3-yl]-1-(trimethylsilyl)cyclobutanecarboxamide]	–
